Assay results reported in article PMC8510601, “Discovery of benzamide-hydroxypyridinone hybrids as potent multi-targeting agents for the treatment of Alzheimer's disease” (Journal of Enzyme Inhibition and Medicinal Chemistry, 2021).
Where a name gives a salt, the structure may show the parent alone. Read-outs that look alike come from different tables or passages of the source.

What was measured:
[1] = tested on: scopolamine-induced cognitive dysfunction ICR mice; assay: Morris water maze test, scopolamine-induced cognitive dysfunction; details: MWM last day, test agent 15 mg/kg i.p. + scopolamine 15 mg/kg i.p., 15 days, n = 8, mean ± SEM
Method: The MWM test was performed at the last 5 days including two days of memory and learning training, three days of cognitive assessment. On the fifth day, a probe training trial was performed and analysed. […] However, the dosage of scopolamine was increased from 5 mg/kg to 15 mg/kg to achieve a better modelling effect.
Cognitive and memory assays in vivo
The adult female ICR mice (8-10 weeks old, weight 20-25 g) were obtained from the
Zhejiang Academy of Medical Sciences (Hangzhou, China).
agents were prepared as clear injections, consisting of 10% DMSO, 20%
(2-hydroxypropyl)-β-cyclodextrin and PBS. The mice were trained to find the platform (10 cm
diameter) in the opaque circular pool (120 cm diameter, 60 cm height) filled with water (40 cm,
depth), which was described in detail in our previous study.[1] All mice received at least one
training session daily in four quadrants for four consecutive days before testing of finding the
The mice were randomly divided into four groups: (i) control group (PBS of 20%
were intraperitoneally injected with indicated compounds or solvent 30 min before intraperitoneal
injection with scopolamine or PBS once a day for 15 consecutive days. The Morris water maze
test was performed at the last 5 days.

[2] = biological target: T1, MAO-B (Homo sapiens, UniProt P27338); assay: Human MAO-B inhibition assay; format: biochemical; details: for inhibition at 0.1 µM: read-out: Inhibitory rate ± SEM (%, 100 nM); for inhibition at 1 µM: read-out: Inhibitory rate ± SEM (%, 1 μM); for IC50: ± SEM, read-out: IC50 against MAO-B
T1 sequence (P27338 1-520): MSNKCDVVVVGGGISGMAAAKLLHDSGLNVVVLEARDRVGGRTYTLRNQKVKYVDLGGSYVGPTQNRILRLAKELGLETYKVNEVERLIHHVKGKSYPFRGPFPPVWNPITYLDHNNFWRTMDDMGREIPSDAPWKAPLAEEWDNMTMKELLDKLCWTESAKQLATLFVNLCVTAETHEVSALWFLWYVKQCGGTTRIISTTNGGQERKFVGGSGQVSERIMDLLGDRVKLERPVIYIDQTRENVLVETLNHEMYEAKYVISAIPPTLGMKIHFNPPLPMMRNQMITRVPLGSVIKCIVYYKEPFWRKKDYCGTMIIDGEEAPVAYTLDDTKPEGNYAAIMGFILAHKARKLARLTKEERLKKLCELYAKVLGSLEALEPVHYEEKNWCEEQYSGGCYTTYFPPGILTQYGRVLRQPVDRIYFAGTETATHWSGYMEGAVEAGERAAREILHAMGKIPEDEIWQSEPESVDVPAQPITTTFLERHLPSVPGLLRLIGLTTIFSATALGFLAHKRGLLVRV

[3] = DFP^d: KCl (0.1 M); cited from earlier work
[4] = DFP^d: KCl (0.1 M); cited from earlier work; remark: listed apart in the source
[5] = pKa determination by spectrophotometric titration; details: pH range 2.0–10.5, 25 °C
[6] = Iron-chelating activity test: affinity constants for Fe3+ and pFe3+
[7] = PAMPA-BBB assay; details: for Prediction of CNS penetrability: from Pe in PAMPA-BBB
[8] = biological target: T2, MAO-A (Homo sapiens, UniProt P21397); assay: Human MAO-A inhibitory assay; format: biochemical; details: read-out: IC50 ± SEM MAO-A
T2 sequence (P21397 1-527): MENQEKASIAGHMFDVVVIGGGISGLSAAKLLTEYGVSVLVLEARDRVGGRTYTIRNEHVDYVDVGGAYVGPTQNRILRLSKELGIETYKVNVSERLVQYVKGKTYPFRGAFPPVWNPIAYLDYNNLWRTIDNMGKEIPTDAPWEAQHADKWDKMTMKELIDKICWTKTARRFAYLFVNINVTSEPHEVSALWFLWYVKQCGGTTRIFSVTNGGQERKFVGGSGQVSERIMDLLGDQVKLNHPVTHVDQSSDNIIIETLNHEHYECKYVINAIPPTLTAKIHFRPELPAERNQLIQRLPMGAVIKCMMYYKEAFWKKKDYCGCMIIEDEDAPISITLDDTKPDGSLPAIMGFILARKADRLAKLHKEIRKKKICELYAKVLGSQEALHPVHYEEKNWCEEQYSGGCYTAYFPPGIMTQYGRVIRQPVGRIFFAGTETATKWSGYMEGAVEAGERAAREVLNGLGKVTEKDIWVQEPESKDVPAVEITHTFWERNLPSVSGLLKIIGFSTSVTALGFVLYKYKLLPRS

[9] = tested on: PC12 cells; assay: Intracellular ROS detection (DCFH-DA), Aβ1–42-induced; format: cell-based; details: 8g and Aβ1–42 10 μM, flow cytometry
Method: Aβ deposition and peroxidation are also important clinical features of AD. Therefore, we subsequently assessed the antioxidation of compound 8g, using 2′,7′-dichlorofluorescin diacetate (DCFH-DA) to detect intracellular ROS generation on the PC12 cell line derived from neural pheochromocytoma. Based on our previous research, the concentration of 10 μM of compound 8g was chosen in this test. […]
8. Intracellular ROS detection

[10] = literature value, cited from earlier work
[11] = in vitro; details: PAMPA
[12] = pH 7.4, [Fe3+]total = 10^−6 M, [ligand]total = 10^−5 M, calculated from pKa and log β measured in KCl/DMSO
[13] = 0.1 M KCl aqueous solution, KCl (0.1 M)
[14] = 0.1 M KCl aqueous solution, pKa2, KCl (0.1 M)

In the case of `C#CCN(C)Cc1ccccc1` [Pargyline, reference compound], the “Distance to the target” value [1] is reported as 2.89 ± 0.69 m, the “Entries to the target” value [1] is reported as 3.85 ± 0.48 and the inhibition at 0.1 µM [2] is reported as 50.3 ± 0.73%. For the same compound, the inhibition at 1 µM [2] was 91.59 ± 0.09%.
For `CN1[C@@H]2C[C@@H](OC(=O)[C@H](CO)c3ccccc3)C[C@H]1[C@@H]1O[C@@H]12` [scopolamine, Scopolamine hydrobromide], the “Distance to the target” value [1] was 7.74 ± 1.23 m, the “Entries to the target” value [1] was 2.00 ± 0.50 and the “Latency to the target” value [1] was 41.40 ± 5.87 s.
In the case of `Cc1c(O)c(=O)ccn1C` [DFP, Deferiprone, reference compound], the pKa1 [3] is listed as 3.61, the pKa2 [3] is listed as 9.78 and the “Log β1” value [4] is listed as 15.03. The “Log β2” value [4] was 27.42, the “Log β3” value [4] was 37.35 and the “pFe^3+” value [4] was 20.74. The pKa ([5]; KCl (0.1 M)) was 3.64, the pKa2 ([5]; KCl (0.1 M)) was 9.79 and the “pFe^3+” value ([6]; DFP^a: from constants measured in KCl (0.1 M)) was 20.12. The “Log β1” value ([6]; DFP^a: measured in KCl (0.1 M)) was 14.86, the “Log β2” value ([6]; DFP^a: measured in KCl (0.1 M)) was 27.13 and the “Log β3” value ([6]; DFP^a: measured in KCl (0.1 M)) was 36.76. The “Log β2” value ([6]; KCl (0.1 M): DMSO = 3:2 (v/v)) was 26.04, the “Log β3” value ([6]; KCl (0.1 M): DMSO = 3:2 (v/v)) was 34.84 and the “Log β1” value ([6]; KCl (0.1 M): DMSO = 9:1 (v/v)) was 14.75. The “pFe^3+” value [6, 12] was 18.24.
In the case of `Cc1c(O)c(=O)ccn1CCNC(=O)c1ccc(OCc2ccccc2)cc1` [Compound 8g], the Papp at 6 h, 25 μg/mL ([7]; PAMPA) is reported as 4.07 ± 0.44 ×10⁻⁶ cm/s, the “Prediction of CNS penetrability” value [7] is reported as “CNS + (CNS +: Pe (10^–6 cm/s) > 4.0, high BBB permeability)” and the “Pe ± SEM” value ([7]; porcine brain lipid, 6 h at 25 °C, eight independent experiments) is reported as > 4.0 10^–6 cm/s. The IC50 [8] was 14600 ± 231 nM, the “Distance to the target” value [1] was 2.64 ± 0.52 m and the “Entries to the target” value [1] was 4.12 ± 0.40. The melting point was 246 to 248 °C, the inhibition at 0.1 µM ([2]; 100 nM) was > 50% and the inhibition at 1 µM ([2]; 1 μM) was 78.29 ± 0.16%. For the same compound, the “SI (selectivity index) = IC50 (MAO-A)/IC50 (MAO-B)” value ([2]; selectivity for the MAO-B isoform) was 213, the IC50 [2] was 68.4 ± 6.05 nM and the “ROS %Gated (percentage of positive cells in the total number of cells)” value [9] was 33.32%. For the same compound, the “ROS Mean (average fluorescence intensity of all cells)” value [9] was 106.35, the pKa [5, 13] was 3.38 and the pKa [5, 14] was 9.69. The “Log β2” value ([6]; KCl (0.1 M): DMSO = 3:2 (v/v)) was 26.04, the “Log β3” value ([6]; KCl (0.1 M): DMSO = 3:2 (v/v)) was 35.65 and the “Log β1” value ([6]; KCl (0.1 M): DMSO = 9:1 (v/v)) was 14.60. The “pFe^3+” value [6, 12] was 19.31.
For `Nc1c2c(nc3ccccc13)CCCC2` [Tacrine], the Pe ([10]; footnote b) is listed as 5.3 ± 0.19^b 10^–6 cm/s and the Papp at 6 h, 25 μg/mL [11] is listed as 4.12 ± 0.45 ×10⁻⁶ cm/s.
In the case of `CN1C(C(=O)Nc2ccccn2)=C(O)c2ccccc2S1(=O)=O` [Piroxicam], the Pe ([10]; footnote c) is listed as 2.5^c 10^–6 cm/s, the “Prediction of CNS penetrability” value [7] is listed as “CNS ± (CNS ±: 2.0 < Pe (10^–6 cm/s) < 4.0, uncertain BBB permeability)” and the Papp [11] is listed as 2.05 ± 0.04 ×10⁻⁶ cm/s.
With “Aβ1–42: Aβ peptide used to induce intracellular ROS in PC12 cells (model group) [reference compound]” the “ROS %Gated (percentage of positive cells in the total number of cells)” value [9] was 44.58% and the “ROS Mean (average fluorescence intensity of all cells)” value [9] was 131.56.
With `Cc1c(O)c(=O)ccn1CCNC(=O)c1ccccc1O` [Compound 8w] the melting point was 156 to 158 °C, the inhibition at 0.1 µM ([2]; 100 nM) was 44.38 ± 0.23% and the inhibition at 1 µM ([2]; 1 μM) was 56.43 ± 0.24%. The IC50 [2] was 121.5 ± 0.86 nM, the pKa [5, 13] was 3.47 and the pKa [5, 14] was 9.68. The “Log β2” value ([6]; KCl (0.1 M): DMSO = 3:2 (v/v)) was 25.69, the “Log β3” value ([6]; KCl (0.1 M): DMSO = 3:2 (v/v)) was 34.63 and the “Log β1” value ([6]; KCl (0.1 M): DMSO = 9:1 (v/v)) was 14.45. The “pFe^3+” value [6, 12] was 18.34.
Work on `Cc1c(O)c(=O)ccn1CCNC(=O)c1ccccc1OCc1ccccc1` [Compound 8e] yielded a melting point of 180 to 182 °C, an inhibition at 0.1 µM ([2]; 100 nM) of 33.1 ± 1.43% and an inhibition at 1 µM ([2]; 1 μM) of 51.5 ± 1.06%. The pKa [5, 13] was 3.38, the pKa [5, 14] was 9.99 and the “Log β2” value ([6]; KCl (0.1 M): DMSO = 3:2 (v/v)) was 26.46. For the same compound, the “Log β3” value ([6]; KCl (0.1 M): DMSO = 3:2 (v/v)) was 35.64, the “Log β1” value ([6]; KCl (0.1 M): DMSO = 9:1 (v/v)) was 14.66 and the “pFe^3+” value [6, 12] was 18.43.
Work on `Cc1c(O)c(=O)ccn1CCNC(=O)c1ccc(OCc2ccc(C(C)C)cc2)cc1` [Compound 8u] yielded a melting point of 247 to 249 °C, an inhibition at 0.1 µM ([2]; 100 nM) of 41.5 ± 1.94% and an inhibition at 1 µM ([2]; 1 μM) of 62.92 ± 0.51%. The IC50 [2] was 128 ± 3.96 nM, the pKa [5, 13] was 3.33 and the pKa [5, 14] was 9.58. The “Log β2” value ([6]; KCl (0.1 M): DMSO = 3:2 (v/v)) was 25.58, the “Log β3” value ([6]; KCl (0.1 M): DMSO = 3:2 (v/v)) was 35.36 and the “Log β1” value ([6]; KCl (0.1 M): DMSO = 9:1 (v/v)) was 14.67. The “pFe^3+” value [6, 12] was 19.35.
